Laboratory results as given in patent US20110003760A1, “ABNORMAL PROTEIN REMOVING METHOD” (priority 2005, published 2011).

Experiments:
[1] = test system: carbonylated protein in three-dimensional human skin model TESTSKIN (LSE-high); experiment: Carbonylated protein in three-dimensional human skin model, Western blotting (DNPH); format: cell-based; details: for Relative photographic density (carbonylated protein): untreated without UV = 100%; for effect on accumulation of carbonylated protein: retinoic acid and retinol at 3 and 10 μM
Protocol: (§1) Three-dimensional human skin models are widely used in safety evaluation and effectiveness evaluation as a simulated model of human skin. In this test, TESTSKIN (LSE-high) (Toyobo Co., Ltd.) was used as a three-dimensional human skin model.
(§2) A culture medium was added to the outer well of TESTSKIN (LSE-high) and cultured for 24 hours. UVA and UVB were irradiated at 10 J/cm^2 and 100 mJ/cm^2, respectively. UVB was irradiated for 2 minutes at a UV intensity of […] using FL20S-E-30/DMR (Clinical Supply Co., Ltd.) to achieve a total irradiation dose of 100 mJ/cm^2. UV intensity was measured using a UV MONITOR MS-211-I (Eiko Instruments Co., Ltd.).
As a control group, three-dimensional human skin models not irradiated with UVA or UVB were also prepared.
(§3) Thereafter, the culture solution was changed and each agent was added by 100 μl onto the tissues in the assay ring, after which the medium was cultured for 36 hours. Thereafter, the tissues were collected and a tissue extraction solution (50 mM Tris-HCl (pH 7.5), 0.5% (Octylphenoxy) polyethoxyethanol (Sigma-Aldrich Corp.)) was added, and then the mixture was homogenized using a Teflon (registered trademark) homogenizer. The homogenized mixture was centrifuged for 30 minutes at 10,000×G to remove tissue fragments, and then dialyzed overnight in distilled water at 4° C. Thereafter, the dialyzed mixture was freeze-dried to remove water. A tissue extraction solution was added to obtain a ×20 concentrate, and this concentrate was used as a three-dimensional skin model extract sample.
In this test, 2,4-dinitrophenyl hydrazine (DNPH), which specifically bonds with the carbonyl group in the protein produced by oxidation damage, was used to label carbonylated protein, and then detection was performed using an anti-DNPH antibody that specifically bonds with DNPH.
The specific method is explained below. DNPH protein was detected from the protein in the sample by means of Western blotting using a DNPH kit (Oxi Blot™ Protein Oxidation Detection Kit; Chemicon International Inc.). Detection was performed by exposing PVDF membranes to light using a […] (ECL PLUS; Amarsham PLC), and an automatic developer (FPM100; FUJIFILM Medical Co., Ltd.) was used to transfer images. A densitometer (Molecular Dynamics Inc.) was then used to analyze the images to quantify the photographic density. For your information, protein in the sample was reduced and measured as deemed appropriate. In this case, 2-mercaptoethanol was used as a reducing agent and the mixture was heated for 5 minutes at 100° C. to sever the disulfide bond.
Based on the above results, it is clear that Bletilla striata extract and silybin suppress accumulation of carbonylated protein in a three-dimensional skin model in a manner dependent on the concentration. Accordingly, whether or not a combined use of Bletilla striata extract and silybin would synergistically suppress accumulation of carbonylated protein was evaluated. Also, whether or not a combined use of silybin and soybean saponin, a substance known to have an action to suppress accumulation of carbonylated protein, would synergistically suppress accumulation of carbonylated protein was evaluated. As a result, regardless of whether or not UV light was irradiated using silybin (3 μM) in combination with Bletilla striata extract (0.1%; final extract concentration of 0.001%), or using silybin (3 μM) in combination with soybean saponin (0.0005%), suppressed the accumulation of carbonylated protein synergistically compared to when a sample was treated with silybin (3 μM), Bletilla striata extract (0.1%; final extract concentration of 0.001%) or soybean saponin (0.0005%) alone, as far as accumulation of carbonylated protein in a three-dimensional skin model was concerned (FIG. 7 and Table 7; results of non-reduced protein).

[2] = test system: trypsin-like proteasome activity in three-dimensional human skin model; experiment: Proteasome activity in three-dimensional human skin model; format: cell-based; details: for proteasome activity compared to the sample not given any treatment under UV irradiation (75%) / proteasome activity compared to the sample not given any treatment: FIG. 11; for proteasome activity compared to the sample not given any treatment: without UV irradiation; for effect on proteasome activity: retinoic acid and retinol at 3 and 10 μM
Protocol: as §1, §2, §3
Proteasome activity was measured using a known method (Hayashi, et al., Mechanisms of Aging and Development, Vol. 102, pp. 55-66, 1998) based on cell extract samples.
The specific method is as follows. For the matrix to measure trypsin-like proteasome activity, t-butyloxycarbonyl-L-leucyl-L-arginyl-L-arginyl-L-4-methyl-coumaryl-7-amide (Peptide Institute, Inc.) was used. A cell extract sample containing protein by an equivalent of 10 μg was added to 10.5 μl of a 100 μM matrix solution prepared with 100 mM Tris-HCl (pH 8.0), after which a cell extraction solution was added to a total volume of 50 μl. The obtained solution was treated for 30 minutes at 37° C., after which the fluorescence intensity of the separated 7-amine-4-methyl coumarin was measured at an excitation wavelength (Ex) of 380 nm and absorption waveform (Em) of 440 nm. The result was obtained for each sample type treated with each agent, as an “average ±standard error” calculated from the measured values of three samples.
Based on the above results, it is clear that Bletilla striata extract and silybin promote proteasome activity in a three-dimensional skin model in a manner dependent on the concentration. Accordingly, whether or not a combined use of Bletilla striata extract and silybin would synergistically promote proteasome activity was evaluated. Also, whether or not a combined use of silybin and soybean saponin, a substance known to have an action to promote proteasome activity, would synergistically promote proteasome activity was evaluated. As a result, regardless of whether or not UV light was irradiated, using silybin (3 μM) in combination with Bletilla striata extract (0.1%; final extract concentration of 0.001%), or using silybin (3 μM) in combination with soybean saponin (0.0005%), promoted proteasome activity synergistically compared to when a sample was treated with silybin (3 μM), Bletilla striata extract (0.1%; final extract concentration of 0.001%) or soybean saponin (0.0005%) alone, as far as promotion of proteasome activity in a three-dimensional skin model was concerned (FIG. 12).

CC1=C(/C=C/C(C)=C/C=C/C(C)=C/C(=O)O)C(C)(C)CCC1 [Retinoic acid, all-trans-retinoic acid]
amount of carbonylated protein compared to the sample not given any treatment under UV irradiation ([1]; non-reduced protein, 3 μM): little change
Relative photographic density (carbonylated protein) ([1]; non-reduced protein, treatment concentration 3 μM, UV (+)): 305%
Relative photographic density (carbonylated protein) ([1]; non-reduced protein, treatment concentration 3 μM, UV (−)): 110%
Relative photographic density (carbonylated protein) ([1]; non-reduced protein, treatment concentration 3 μM, UV (−), listed as retinoic acid): little change
amount of carbonylated protein compared to the sample not given any treatment under UV irradiation ([1]; reduced protein, 3 μM): little change
Relative photographic density (carbonylated protein) ([1]; reduced protein, treatment concentration 3 μM, UV (+)): 315%
Relative photographic density (carbonylated protein) ([1]; reduced protein, treatment concentration 3 μM, UV (−)): 105%
Relative photographic density (carbonylated protein) ([1]; reduced protein, treatment concentration 3 μM, UV (−), listed as retinoic acid): little change
effect on accumulation of carbonylated protein [1]: no effect
proteasome activity compared to the sample not given any treatment under UV irradiation (75%) ([2]; 3 μM): little change
proteasome activity compared to the sample not given any treatment ([2]; 3 μM): little change
effect on proteasome activity [2]: no effect

CC1=C(/C=C/C(C)=C/C=C/C(C)=C/CO)C(C)(C)CCC1 [Retinol, all-trans-retinol]
amount of carbonylated protein compared to the sample not given any treatment under UV irradiation ([1]; non-reduced protein, 10 μM): little change
Relative photographic density (carbonylated protein) ([1]; non-reduced protein, treatment concentration 10 μM, UV (+)): 315%
Relative photographic density (carbonylated protein) ([1]; non-reduced protein, treatment concentration 10 μM, UV (−)): 115%
Relative photographic density (carbonylated protein) ([1]; non-reduced protein, treatment concentration 10 μM, UV (−), listed as retinol): little change
amount of carbonylated protein compared to the sample not given any treatment under UV irradiation ([1]; reduced protein, 10 μM): little change
Relative photographic density (carbonylated protein) ([1]; reduced protein, treatment concentration 10 μM, UV (+)): 330%
Relative photographic density (carbonylated protein) ([1]; reduced protein, treatment concentration 10 μM, UV (−)): 110%
Relative photographic density (carbonylated protein) ([1]; reduced protein, treatment concentration 10 μM, UV (−), listed as retinol): little change
effect on accumulation of carbonylated protein [1]: no effect
proteasome activity compared to the sample not given any treatment under UV irradiation (75%) ([2]; 10 μM): little change
proteasome activity compared to the sample not given any treatment ([2]; 10 μM): little change
effect on proteasome activity [2]: no effect
